{
  "source": "patent US20060177499A1",
  "about": "“Method for the manufacture of a pharmaceutical composition in the form of tablets containing a fibrate and tablets obtained according to the method” (priority 2003, published 2006)",
  "origin": "cited, not measured here",
  "settings": "long-term treatment; e.g. rhabdomyolysis, asthenia, increase of transaminases, hepatic toxicity",
  "data": [
    {"smiles": "CC(C)OC(=O)C(C)(C)Oc1ccc(C(=O)c2ccc(Cl)cc2)cc1", "note": "[fenofibrate, Isopropyl 2-[4-(4-chlorobenzoyl)phenoxy]-2-methylpropionate]", "values": [
      {"measurement": "adverse effects", "value": "not completely devoid of adverse effects"}
    ]}
  ]
}
